Reference: PMC8500670, “A selective WDR5 degrader inhibits acute myeloid leukemia in patient-derived mouse models” (Science translational medicine, 2021)
Like-named read-outs stand apart in the source and are kept apart here.

Experiments:
[1] = molecular target: T1, 5-HT1A (Homo sapiens, UniProt P08908); assay: biochemical; design: GPCR, ion channel and transporter panel, per cent inhibition of binding, mean of four
T1 construct: gene HTR1A
Protocol: (§1) We next assessed selectivity of MS67 against 22 protein methyltransferases (table S2) and a broad panel of common drug targets including 45 kinases (table S3) and 44 G protein–coupled receptors (GPCR), ion channels, and transporters (table S4). […] We subsequently determined that MS67 had moderate binding affinity (Ki = 1.0 ± 0.8 μM) to Sigma 2 receptor (fig. S10).

[2] = molecular target: T2, 5-HT6 (Homo sapiens, UniProt P50406); assay: biochemical; design: GPCR, ion channel and transporter panel, per cent inhibition of binding, mean of four
T2 construct: gene HTR6
T2 sequence (P50406 whole entry): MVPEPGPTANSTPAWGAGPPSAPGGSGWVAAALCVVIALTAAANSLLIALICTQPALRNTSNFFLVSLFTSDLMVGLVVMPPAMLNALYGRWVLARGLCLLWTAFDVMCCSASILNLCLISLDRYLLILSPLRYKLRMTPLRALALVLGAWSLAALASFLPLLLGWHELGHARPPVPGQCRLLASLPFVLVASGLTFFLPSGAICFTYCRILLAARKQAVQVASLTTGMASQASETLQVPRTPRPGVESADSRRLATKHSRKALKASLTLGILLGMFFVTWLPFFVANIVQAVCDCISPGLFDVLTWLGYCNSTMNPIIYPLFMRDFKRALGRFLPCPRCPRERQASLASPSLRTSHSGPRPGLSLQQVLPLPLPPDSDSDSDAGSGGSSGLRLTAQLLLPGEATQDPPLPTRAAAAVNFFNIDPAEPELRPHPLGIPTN
Protocol: as §1

[3] = molecular target: T3, Alpha1A (Homo sapiens, UniProt P35348); assay: biochemical; design: GPCR, ion channel and transporter panel, per cent inhibition of binding, mean of four
T3 construct: gene ADRA1A
T3 sequence (P35348 whole entry): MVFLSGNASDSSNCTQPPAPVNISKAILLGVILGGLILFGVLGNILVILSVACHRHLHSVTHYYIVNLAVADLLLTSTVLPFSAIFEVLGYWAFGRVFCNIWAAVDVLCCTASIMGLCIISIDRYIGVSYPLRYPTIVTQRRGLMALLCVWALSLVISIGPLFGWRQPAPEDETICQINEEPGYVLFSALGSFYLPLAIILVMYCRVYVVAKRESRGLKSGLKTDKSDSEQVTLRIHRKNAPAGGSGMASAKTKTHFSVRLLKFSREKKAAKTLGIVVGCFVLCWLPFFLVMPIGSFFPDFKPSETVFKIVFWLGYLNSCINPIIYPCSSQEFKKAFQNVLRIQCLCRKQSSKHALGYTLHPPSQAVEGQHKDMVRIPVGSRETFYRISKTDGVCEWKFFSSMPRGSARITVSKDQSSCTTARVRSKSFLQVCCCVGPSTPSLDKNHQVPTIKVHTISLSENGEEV
Protocol: as §1

[4] = molecular target: T4, Sigma 1 (Homo sapiens, UniProt Q99720); assay: biochemical; design: GPCR, ion channel and transporter panel, per cent inhibition of binding, mean of four
T4 construct: gene SIGMAR1
T4 sequence (Q99720 whole entry): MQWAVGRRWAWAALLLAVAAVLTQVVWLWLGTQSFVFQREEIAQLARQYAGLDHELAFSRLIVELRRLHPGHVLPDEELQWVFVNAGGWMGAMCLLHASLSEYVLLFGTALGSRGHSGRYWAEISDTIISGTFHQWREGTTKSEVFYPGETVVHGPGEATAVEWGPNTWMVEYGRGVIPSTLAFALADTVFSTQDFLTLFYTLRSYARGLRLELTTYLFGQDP
Protocol: as §1

[5] = molecular target: T5, Alpha2B (Homo sapiens, UniProt P18089); assay: biochemical; design: GPCR, ion channel and transporter panel, per cent inhibition of binding, mean of four
T5 construct: gene ADRA2B
Protocol: as §1

[6] = molecular target: T6, Alpha1B (Homo sapiens, UniProt P35368); assay: biochemical; design: GPCR, ion channel and transporter panel, per cent inhibition of binding, mean of four
T6 construct: gene ADRA1B
Protocol: as §1

[7] = molecular target: T7, DAT (Homo sapiens, UniProt Q01959); assay: biochemical; design: GPCR, ion channel and transporter panel, per cent inhibition of binding, mean of four
T7 construct: gene SLC6A3
Protocol: as §1

[8] = molecular target: T8, Alpha1D (Homo sapiens, UniProt P25100); assay: biochemical; design: GPCR, ion channel and transporter panel, per cent inhibition of binding, mean of four
T8 construct: gene ADRA1D
T8 sequence (P25100 whole entry): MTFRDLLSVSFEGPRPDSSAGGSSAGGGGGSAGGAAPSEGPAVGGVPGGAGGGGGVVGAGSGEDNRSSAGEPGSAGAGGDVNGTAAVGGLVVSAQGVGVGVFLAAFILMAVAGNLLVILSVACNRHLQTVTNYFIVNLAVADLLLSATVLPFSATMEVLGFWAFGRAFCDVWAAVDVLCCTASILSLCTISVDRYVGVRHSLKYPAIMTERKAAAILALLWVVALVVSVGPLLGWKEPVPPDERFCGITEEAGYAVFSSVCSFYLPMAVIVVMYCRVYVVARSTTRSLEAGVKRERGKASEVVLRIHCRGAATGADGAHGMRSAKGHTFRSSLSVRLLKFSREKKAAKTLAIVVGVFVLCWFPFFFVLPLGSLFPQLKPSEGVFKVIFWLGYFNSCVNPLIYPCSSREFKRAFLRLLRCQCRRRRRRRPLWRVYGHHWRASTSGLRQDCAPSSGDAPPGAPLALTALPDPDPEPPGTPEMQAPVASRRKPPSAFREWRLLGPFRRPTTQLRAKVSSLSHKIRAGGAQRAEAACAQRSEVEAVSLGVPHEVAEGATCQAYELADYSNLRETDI
Protocol: as §1

[9] = molecular target: T9, Beta3 (Homo sapiens, UniProt P13945); assay: biochemical; design: GPCR, ion channel and transporter panel, per cent inhibition of binding, mean of four
T9 construct: gene ADRB3
Protocol: as §1

[10] = molecular target: T10, 5-HT7A (Homo sapiens, UniProt P34969); assay: biochemical; design: GPCR, ion channel and transporter panel, per cent inhibition of binding, mean of four
T10 construct: gene HTR7; isoform 7A
Protocol: as §1

[11] = molecular target: T11, Beta2 (Homo sapiens, UniProt P07550); assay: biochemical; design: GPCR, ion channel and transporter panel, per cent inhibition of binding, mean of four
T11 construct: gene ADRB2
T11 sequence (P07550 whole entry): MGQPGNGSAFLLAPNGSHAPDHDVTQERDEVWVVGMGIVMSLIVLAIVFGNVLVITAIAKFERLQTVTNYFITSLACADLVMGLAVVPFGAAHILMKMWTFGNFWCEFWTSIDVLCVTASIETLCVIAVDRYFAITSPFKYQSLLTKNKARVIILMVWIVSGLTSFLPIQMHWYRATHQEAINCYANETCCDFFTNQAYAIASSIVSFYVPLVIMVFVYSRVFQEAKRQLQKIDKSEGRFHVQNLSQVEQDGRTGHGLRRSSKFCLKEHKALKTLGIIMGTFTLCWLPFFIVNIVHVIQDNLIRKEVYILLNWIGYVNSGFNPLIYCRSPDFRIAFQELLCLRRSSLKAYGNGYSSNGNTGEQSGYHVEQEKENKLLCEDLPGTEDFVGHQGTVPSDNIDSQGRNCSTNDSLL
Protocol: as §1

[12] = molecular target: T12, Sigma 2 (Homo sapiens, UniProt Q5BJF2); assay: biochemical; design: GPCR, ion channel and transporter panel, per cent inhibition of binding, mean of four
T12 construct: gene TMEM97
T12 sequence (Q5BJF2 whole entry): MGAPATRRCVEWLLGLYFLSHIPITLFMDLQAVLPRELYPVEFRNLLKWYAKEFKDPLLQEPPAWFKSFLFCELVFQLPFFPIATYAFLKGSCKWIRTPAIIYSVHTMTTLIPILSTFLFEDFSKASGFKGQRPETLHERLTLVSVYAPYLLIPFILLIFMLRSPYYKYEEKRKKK
Protocol: as §1

[13] = molecular target: T13, D3 (Homo sapiens, UniProt P35462); assay: biochemical; design: GPCR, ion channel and transporter panel, per cent inhibition of binding, mean of four
T13 construct: gene DRD3
T13 sequence (P35462 whole entry): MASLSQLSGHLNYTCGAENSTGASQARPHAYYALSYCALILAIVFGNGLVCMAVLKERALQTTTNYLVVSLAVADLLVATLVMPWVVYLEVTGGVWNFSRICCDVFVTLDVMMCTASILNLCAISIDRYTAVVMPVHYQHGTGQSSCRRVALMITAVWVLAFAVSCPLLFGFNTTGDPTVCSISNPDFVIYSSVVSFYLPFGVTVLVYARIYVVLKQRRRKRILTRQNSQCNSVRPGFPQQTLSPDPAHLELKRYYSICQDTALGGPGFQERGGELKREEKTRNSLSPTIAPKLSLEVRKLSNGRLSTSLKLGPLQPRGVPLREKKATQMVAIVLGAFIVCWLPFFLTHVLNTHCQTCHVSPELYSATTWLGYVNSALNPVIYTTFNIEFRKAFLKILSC
Protocol: as §1

[14] = molecular target: T14, 5-HT3 (Homo sapiens, UniProt P46098); assay: biochemical; design: GPCR, ion channel and transporter panel, per cent inhibition of binding, mean of four
T14 construct: gene HTR3A
Protocol: as §1

[15] = molecular target: WDR5 (WD40 repeat domain protein 5) (Homo sapiens, UniProt P61964); assay: ITC; […]-Å crystal structure of WDR5-MS67-VCB ternary complex; assay type: binding
[16] = molecular target: T15, Alpha2C (Homo sapiens, UniProt P18825); assay: biochemical; design: NIMH-PDSP radioligand binding assays, percent inhibition of radioligand binding, quadruplicate
T15 construct: gene ADRA2C

[17] = molecular target: T16, NET (Homo sapiens, UniProt P23975); assay: biochemical; design: NIMH-PDSP radioligand binding assays, percent inhibition of radioligand binding, quadruplicate
T16 construct: gene SLC6A2

[18] = molecular target: T17, 5-HT1B (Homo sapiens, UniProt P28222); assay: biochemical; design: NIMH-PDSP radioligand binding assays, percent inhibition of radioligand binding, quadruplicate
T17 construct: gene HTR1B

[19] = molecular target: T18, 5-HT2B (Homo sapiens, UniProt P41595); assay: biochemical; design: NIMH-PDSP radioligand binding assays, percent inhibition of radioligand binding, quadruplicate
T18 construct: gene HTR2B
T18 sequence (P41595 whole entry): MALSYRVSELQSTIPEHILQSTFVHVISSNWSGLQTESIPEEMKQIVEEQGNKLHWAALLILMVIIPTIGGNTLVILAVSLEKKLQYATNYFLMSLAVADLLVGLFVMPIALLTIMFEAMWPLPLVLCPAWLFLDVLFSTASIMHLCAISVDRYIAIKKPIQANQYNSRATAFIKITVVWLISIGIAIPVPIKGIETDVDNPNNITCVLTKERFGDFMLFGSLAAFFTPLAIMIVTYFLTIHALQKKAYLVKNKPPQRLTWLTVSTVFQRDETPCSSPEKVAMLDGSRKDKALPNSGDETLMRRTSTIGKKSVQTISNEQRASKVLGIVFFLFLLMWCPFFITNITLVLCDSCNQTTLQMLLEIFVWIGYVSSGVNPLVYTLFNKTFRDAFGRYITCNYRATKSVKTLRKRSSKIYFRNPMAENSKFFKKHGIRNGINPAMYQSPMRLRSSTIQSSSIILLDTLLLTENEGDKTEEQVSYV

[20] = molecular target: T19, 5-HT1E (Homo sapiens, UniProt P28566); assay: biochemical; design: NIMH-PDSP radioligand binding assays, percent inhibition of radioligand binding, quadruplicate
T19 construct: gene HTR1E
T19 sequence (P28566 whole entry): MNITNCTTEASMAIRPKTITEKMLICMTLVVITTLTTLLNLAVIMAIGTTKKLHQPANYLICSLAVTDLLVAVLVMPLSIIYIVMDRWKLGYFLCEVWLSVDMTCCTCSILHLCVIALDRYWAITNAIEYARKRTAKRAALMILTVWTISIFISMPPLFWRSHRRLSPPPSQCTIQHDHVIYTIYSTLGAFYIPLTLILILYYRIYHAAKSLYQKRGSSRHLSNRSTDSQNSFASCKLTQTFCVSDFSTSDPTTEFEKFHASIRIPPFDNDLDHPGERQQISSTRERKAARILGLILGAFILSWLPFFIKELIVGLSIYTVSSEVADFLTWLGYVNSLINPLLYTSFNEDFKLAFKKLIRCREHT

[21] = molecular target: T20, 5-HT2C (Homo sapiens, UniProt P28335); assay: biochemical; design: NIMH-PDSP radioligand binding assays, percent inhibition of radioligand binding, quadruplicate
T20 construct: gene HTR2C
T20 sequence (P28335 whole entry): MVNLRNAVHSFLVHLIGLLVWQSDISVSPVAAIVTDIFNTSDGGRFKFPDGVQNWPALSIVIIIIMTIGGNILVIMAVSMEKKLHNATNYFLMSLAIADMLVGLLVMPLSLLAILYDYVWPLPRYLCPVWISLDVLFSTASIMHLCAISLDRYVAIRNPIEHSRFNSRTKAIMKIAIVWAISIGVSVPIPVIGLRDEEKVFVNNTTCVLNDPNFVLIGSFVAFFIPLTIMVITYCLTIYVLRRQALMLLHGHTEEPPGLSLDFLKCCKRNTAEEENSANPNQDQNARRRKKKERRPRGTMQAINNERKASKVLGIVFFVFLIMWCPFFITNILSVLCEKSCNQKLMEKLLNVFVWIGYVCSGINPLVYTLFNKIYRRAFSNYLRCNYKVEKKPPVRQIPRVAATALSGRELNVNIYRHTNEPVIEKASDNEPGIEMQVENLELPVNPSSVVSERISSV

[22] = molecular target: T21, D4 (Homo sapiens, UniProt P21917); assay: biochemical; design: NIMH-PDSP radioligand binding assays, percent inhibition of radioligand binding, quadruplicate
T21 construct: gene DRD4
T21 sequence (P21917 whole entry): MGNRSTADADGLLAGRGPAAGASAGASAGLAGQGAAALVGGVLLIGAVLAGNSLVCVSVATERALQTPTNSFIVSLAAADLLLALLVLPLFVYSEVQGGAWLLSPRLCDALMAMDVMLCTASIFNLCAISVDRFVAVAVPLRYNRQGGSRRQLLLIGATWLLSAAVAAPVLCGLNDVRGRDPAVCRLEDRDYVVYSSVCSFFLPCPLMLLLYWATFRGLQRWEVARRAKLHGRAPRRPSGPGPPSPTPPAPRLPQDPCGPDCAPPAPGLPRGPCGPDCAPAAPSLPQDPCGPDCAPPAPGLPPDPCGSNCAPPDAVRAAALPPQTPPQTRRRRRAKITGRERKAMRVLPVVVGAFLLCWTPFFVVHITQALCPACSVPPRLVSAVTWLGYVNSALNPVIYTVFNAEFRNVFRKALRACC

[23] = molecular target: T11, Beta2; assay: biochemical; design: NIMH-PDSP radioligand binding assays, percent inhibition of radioligand binding, quadruplicate
[24] = molecular target: T22, M5 (Homo sapiens, UniProt P08912); assay: biochemical; design: NIMH-PDSP radioligand binding assays, percent inhibition of radioligand binding, quadruplicate
T22 construct: gene CHRM5
T22 sequence (P08912 whole entry): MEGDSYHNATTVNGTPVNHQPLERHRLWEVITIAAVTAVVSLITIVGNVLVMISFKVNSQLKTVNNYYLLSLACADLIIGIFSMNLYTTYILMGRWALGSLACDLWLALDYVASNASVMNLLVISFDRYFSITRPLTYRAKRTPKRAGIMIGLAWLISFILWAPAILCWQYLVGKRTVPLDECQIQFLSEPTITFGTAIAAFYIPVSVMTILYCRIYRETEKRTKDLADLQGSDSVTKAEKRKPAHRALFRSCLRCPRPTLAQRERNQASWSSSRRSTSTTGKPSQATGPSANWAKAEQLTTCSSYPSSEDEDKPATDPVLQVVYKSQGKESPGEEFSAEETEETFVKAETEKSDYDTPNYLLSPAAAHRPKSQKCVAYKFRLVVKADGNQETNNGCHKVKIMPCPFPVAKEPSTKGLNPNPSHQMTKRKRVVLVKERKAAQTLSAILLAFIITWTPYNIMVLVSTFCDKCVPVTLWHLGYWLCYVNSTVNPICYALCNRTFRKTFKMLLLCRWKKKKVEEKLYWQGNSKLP

[25] = molecular target: T23, SERT (Homo sapiens, UniProt P31645); assay: biochemical; design: NIMH-PDSP radioligand binding assays, percent inhibition of radioligand binding, quadruplicate
T23 construct: gene SLC6A4

## Cc1ncsc1-c1ccc([C@H](C)NC(=O)[C@@H]2C[C@@H](O)CN2C(=O)[C@@H](NC(=O)CNC(=O)c2ccc(F)c(-c3ccc(N4C[C@@H](C)N(C)[C@@H](C)C4)c(NC(=O)c4c[nH]c(=O)cc4C(F)(F)F)c3)c2)C(C)(C)C)cc1 [MS67]
[1]
  inhibition at 1 µM: 14.3%
[2]
  inhibition at 1 µM: 13.7%
[3]
  inhibition at 1 µM: 24.4%
[4]
  inhibition at 1 µM: 48.8%
[5]
  inhibition at 1 µM: 21.1%
[6]
  inhibition at 1 µM: 27.6%
[7]
  inhibition at 1 µM: 40.8%
[8]
  inhibition at 1 µM: 28.5%
[9]
  inhibition at 1 µM: 32%
[10]
  inhibition at 1 µM: 12%
[11]
  inhibition at 1 µM: -23%
[12]
  inhibition at 1 µM: 66.6%
[13]
  inhibition at 1 µM: 22.9%
[14]
  inhibition at 1 µM: 26.6%
[15]
  Kd: 63 ± 10 nM
[16]
  inhibition at 1 µM: < 10%
[17]
  inhibition at 1 µM: < 10%
[18]
  inhibition at 1 µM: < 10%
[19]
  inhibition at 1 µM: < 10%
[20]
  inhibition at 1 µM: < 10%
[21]
  inhibition at 1 µM: < 10%
[22]
  inhibition at 1 µM: < 10%
[23]
  inhibition at 1 µM: < 10%
[24]
  inhibition at 1 µM: < 10%
[25]
  inhibition at 1 µM: < 10%
